Entries after “also recorded” stand apart in the source; their conditions may differ. Bridge positions count the residues as written; N and C are the ends. Square brackets hold non-standard residues; d marks the D form. Ends that are not written are not given here. Peptide text beside a SMILES is read from it. R8 = C=CCCCCCC[C@@](C)(N)C(=O)O; S5 = C=CCCC[C@](C)(N)C(=O)O; Sar = CNCC(=O)O
How the values were obtained:
[1] = Total Antioxidant Capacity (TAC) assay; details: highest peptide concentration 1.5 mM
Method: As previously reported, the TAC (Total Antioxidant Capacity) Assay (Cell Biolabs, Inc, San Diego, Calif.) was used to measure the antioxidant capacity of the PIC1 variants based on the reduction of copper (II) to copper (I). The kit protocol was performed per the manufacturer's recommendations.
The antioxidant properties for the PIC1 variants were evaluated in a Total Antioxidant Capacity (TAC) assay, as previously reported. Total antioxidant activity over a range of peptide concentrations were determined for the stapled and the D-amino acid peptides based on the PA-I8Sar and PA-C9Sar backbones (FIG. 8A-8D), with the activity of the highest peptide concentration reported (1.5 mM) (FIGS. 4A and B, respectively). […] For the D-amino acid variants, there was variation in the amount of antioxidant activity with the peptides having similar, slightly lower and slightly higher levels of total antioxidant capacity. In contrast, stapled peptides (PA-0135 through -0140) as well as combination of stapled and D-amino acid peptides had reduced total antioxidant capacity (FIG. 4A).

[2] = tested on: human neutrophils; test: NETosis assay (free DNA, PicoGreen); type: cell-based; details: peptide 2 mM; neutrophils stimulated with PMA and H2O2
Method: Free DNA as a marker for NET formation was measured by PicoGreen as previously described. Briefly, 2.0×10^6 human neutrophils in 96-well plates were stimulated with 12 nM PMA and 0.05% H2O2 in RPMI with or without the indicated peptide variants (2 mM) for 2.5 hr in a 37° C. humified incubator supplemented with 5% CO2, allowing NETosis to occur. Neutrophils in RPMI alone served as a negative control. Fifty units of […] (Fisher) were added to each well to allow for digestion of released extracellular DNA for 10 min at 37° C. The preparation was then aliquoted into an adjacent well and mixed 1:1 with prepared PICO green reagent (Fisher). The fluorescence was then quantified on a BioTek microplate reader at excitation 485 nm/emission 528 nm.

[3] = tested on: complement activity; test: Hemolytic assay of plasma after IV infusion into rats; type: in vivo, rat; details: IV in Wistar rats; early time points at the highest dose
Method: Male Wistar rats with indwelling jugular catheters were administered PA-0117, -0127, -0130, and -0133 with groups of three animals receiving 20, 200 and 400 mg/kg of the compound as a single, bolus, IV infusion. A control group of rats received an infusion of saline IV. At various time points after infusion (0.5, 2, 5, 20, 60, 120, 240, 480, 1440 minute) an aliquot of blood was drawn and plasma isolated and frozen at −70° C. pending analysis. Animals were sacrificed after the terminal blood draw and a gross necropsy performed.
PA-0117 could not be analyzed as no functional complement activity was obtained from the plasma samples. […] PA-0117 was analyzed in a C1q target acquisition assay (C1q binding assay) as described in Example 1 (FIG. 9). […] PA-0127 and -0130 levels were determined by coating the plate with the plasma samples and directly detecting the peptides by rabbit antibody raised against PA-0020 (peptide sequence […]; SEQ ID NO: 57) (FIGS. 10B and 11B). […] PA-0133 could not be detected by the available antibodies.

[4] = ABO incompatibility hemolytic assay of complement activity (CH50-type); type: cell-based, human; details: peptide 0.8 mg/ml (~0.5 mM); read-out: decrease of ABO hemolysis compared to PA-I8Sar
Method: FIG. 1A-1B show PIC1 peptides' inhibition of complement activation in an ABO incompatibility assay. […] Inhibition of ABO incompatibility hemolysis in a CH50-type assay. Peptides are at a final concentration of 0.5 mM. Values are represented as a percent of the positive control, which consists of human O sera and AB red blood cells in GVBS^++ buffer. Data are the means of n=3 independent experiments±SEM.
For hemolytic complement assays, human red blood cells (RBCs) from type AB donors were purified, washed, and standardized to 1.0×10^9 cells/ml, as previously described. Human sera from type O donors at a 15% final concentration was combined with 0.5 mM of the peptides and the volume was brought up to 0.2 ml with GVBS^++ and 5.0×10^7 RBCs. The samples were incubated for 1 hour at 37° C. and then spun at 3,000 rpm for 5 minutes and the supernatant was collected and read at 412 nm. Values are represented as a percent of the positive control, which consists of human O sera and AB red blood cells in GVBS^++ buffer.
To assess the extent to which the peptide variants inhibit antibody-initiated complement activation, an ABO incompatibility ex vivo assay was utilized in which purified erythrocytes from a ‘type AB+’ donor are incubated with sera from a ‘type O’ subject containing anti-A and anti-B antibodies. Peptides were tested at a concentration of 0.8 mg/ml (˜0.5 mM). […] D-amino acid variants PA-0127 and PA-0133 decreased ABO hemolysis by 20% (P value=0.083) and 25% (P value=0.076), respectively. […]

[5] = target: T1, C1q (Homo sapiens, UniProt P02745+P02746+P02747); test: C1q binding ELISA-type assay; details: half-maximal binding from binding curves
T1 construct: purchased Complement Technology (Tyler, Tex.)
Method: The C1q binding assay was performed as previously described. Briefly, an Immunlon-2 HB ELISA plate was coated with 1 μg/ml C1q in bicarbonate buffer overnight at 4° C. The plates were washed with PBS-T (phosphate buffered saline+0.1% Tween) and then blocked with 1% gelatin/PBS for 2 hours at room temperature. After washing, the plates were incubated with the peptides starting at 2.5 mg/ml and then serially diluted in 1% gelatin/PBS for 1 hour at room temperature followed by washing. Plates were then probed with rabbit antibody raised against the lead peptide […] (SEQ ID NO: 2) that lacked PEGylation at 1:1000 in 1% gelatin/PBS for 1 hour at room temperature followed by a goat anti-rabbit HRP (Sigma Aldrich, St Louis, Mo.) at 1:1,000 in 1% gelatin/PBS for 1 hour at room temperature with a washing step in between. After addition of TMB substrate solution to the wells, the reaction was stopped using 1N H2SO4, and the plate read on a BioTek Synergy HT plate reader at 450 nm.
The astrovirus capsid protein and the PIC1 molecules derived from it inhibit classical complement pathway activation by binding to the pattern recognition molecule C1q. The inventors next tested peptide variant binding to C1q in an ELISA-type assay in which C1q is used as the capture substrate and bound peptide detected with a rabbit polyclonal antibody against the peptide portion of PA-dPEG24 ([…]-d24; SEQ ID NO: 3). Binding curves were derived for the stapled and D-amino acid peptides based on the PA-I8Sar and PA-C9Sar (FIG. 6A-6D) backbone, from which half-maximal binding concentrations were calculated (FIGS. 2A and B, respectively). […] For the D-amino acid variants, all peptides in which C1q binding was detected, had variable but increased binding to C1q compared to PA-I8Sar (FIG. 2A). For the peptides based on the PA-C9Sar backbone, with the exception of PA-0148, C1q was bound to the same degree or greater than the parent peptide (FIG. 2B).
The inventors also assessed the ability of RLS-0127* and RLS-0133* to inhibit MPO activity as determined by inhibition of oxidation of TMB in a plate-based assay. […] Additionally, the inventors assessed the ability of RLS-0127* and RLS-0133* to bind C1q in a plate-based assay in which C1q is coated on the plate and increasing amounts of the peptides are added, followed by primary antibody to the peptides and secondary antibody conjugated to HRP. The plate was then incubated with TMB to give a […] signal that is detected at a wavelength of 450 nm in a plate reader.

T1 sequence (P02745 23-245): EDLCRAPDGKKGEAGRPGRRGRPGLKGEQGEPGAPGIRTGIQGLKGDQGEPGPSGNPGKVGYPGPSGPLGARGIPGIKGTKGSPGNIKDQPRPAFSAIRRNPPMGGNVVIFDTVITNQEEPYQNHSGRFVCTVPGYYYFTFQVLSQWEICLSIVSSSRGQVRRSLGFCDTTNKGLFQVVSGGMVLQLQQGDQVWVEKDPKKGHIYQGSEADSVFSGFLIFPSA
T1 sequence (P02746 28-253): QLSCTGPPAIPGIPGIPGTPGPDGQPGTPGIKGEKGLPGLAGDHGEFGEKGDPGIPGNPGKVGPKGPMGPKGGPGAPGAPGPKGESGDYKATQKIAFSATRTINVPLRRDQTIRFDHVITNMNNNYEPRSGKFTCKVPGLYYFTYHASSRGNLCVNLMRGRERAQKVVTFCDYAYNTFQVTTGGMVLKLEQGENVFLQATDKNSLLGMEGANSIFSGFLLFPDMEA
T1 sequence (P02747 29-245): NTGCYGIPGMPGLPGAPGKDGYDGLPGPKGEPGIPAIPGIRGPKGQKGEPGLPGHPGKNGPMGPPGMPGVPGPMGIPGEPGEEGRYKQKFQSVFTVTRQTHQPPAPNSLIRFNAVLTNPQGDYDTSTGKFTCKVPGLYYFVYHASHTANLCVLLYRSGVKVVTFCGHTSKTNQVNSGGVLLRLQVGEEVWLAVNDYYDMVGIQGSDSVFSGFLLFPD

## CC[C@H](C)[C@H](N)C(=O)N[C@@H](C)C(=O)N[C@@H](CC(C)C)C(=O)N[C@H](C(=O)N[C@@H](CC(C)C)C(=O)N[C@@H](CCC(=O)O)C(=O)N1CCC[C@H]1C(=O)N(C)CC(=O)N[C@@H](CS)C(=O)N[C@@H](CS)C(=O)N[C@@]1(C)CCCC=CCCC[C@@](C)(C(=O)O)NC(=O)[C@H](C)NC(=O)[C@H](CCCNC(=N)N)NC(=O)[C@H](CCC(=O)O)NC1=O)[C@@H](C)CC [PA-0116, IALILEP(Sar)CCS5ERAS5] (H-IALILEP[Sar]CC[S5]ERA[S5]-OH; staple 11-15)
[1]
  total antioxidant capacity compared with PA-I8Sar: increased activity; also recorded: superior antioxidant activity

## CC[C@H](C)[C@H](N)C(=O)N[C@@H](C)C(=O)N[C@@H](CC(C)C)C(=O)N[C@H](C(=O)N[C@@H](CC(C)C)C(=O)N[C@@H](CCC(=O)O)C(=O)N1CCC[C@H]1C(=O)N(C)CC(=O)N[C@@H](CS)C(=O)N[C@@H](CS)C(=O)N[C@@H](CCC(N)=O)C(=O)N[C@@H](CCC(=O)O)C(=O)N[C@@H](CCCNC(=N)N)C(=O)N[C@@H](C)C(=O)N[C@H](C)C(=O)O)[C@@H](C)CC [PA-0133, IALILEP(Sar)CCQERAdA] (HELM PEPTIDE1{I.A.L.I.L.E.P.[Sar].C.C.Q.E.R.A.[dA]}$$$$V2.0)
[2]
  reduction of free DNA (marker of NETosis): reduction in free DNA similar to that of the PA-I8Sar control; also recorded: ability to inhibit NET formation
[3]
  inhibition of complement activity in the hemolytic assay of rat plasma: inhibition of complement activity
[4]
  decrease in ABO hemolysis compared to reference peptide: 25%

## IALILR8P(Sar)CCQES5AA (IALIL[R8]P[Sar]CCQE[S5]AA; bridges not given here; also: R8/S5 6-13 may or may not be stapled) [PA-0114]
[1]
  total antioxidant capacity compared with PA-I8Sar: reduction in total antioxidant capacity

## IALILS5P(Sar)CS5QERAA (IALIL[S5]P[Sar]C[S5]QERAA; staple 6-10) [PA-0119]
[5]
  binding to C1q compared with PA-I8Sar: markedly increased binding to C1q

## IALR8LEPI(Sar)CS5ERAA (IAL[R8]LEPI[Sar]C[S5]ERAA; bridges not given here; also: R8/S5 4-11 may or may not be stapled) [PA-0147]
[1]
  total antioxidant capacity compared with PA-C9Sar: maintained similar activity
